What was measured:
[1] = test system: H1N1; assay: Dose-response of infectivity, H1N1 in L929 cells; format: cell-based; details: Influenza A virus
[2] = test system: HSV-1; assay: microbe, parasite or virus in culture; format: cell-based, herpes simplex virus 1 (HSV-1); details: Human alphaherpesvirus 1, A549
[3] = test system: VSV; format: cell-based, vesicular stomatitis virus (VSV)
[4] = test system: HSV-1; format: cell-based, herpes simplex virus 1 (HSV-1)
[5] = target: T1, NPC1 (Homo sapiens, UniProt O15118); assay: Drug affinity responsive target stability (DARTS); details: 150 µM, pronase digestion
T1 sequence (O15118 23-1278): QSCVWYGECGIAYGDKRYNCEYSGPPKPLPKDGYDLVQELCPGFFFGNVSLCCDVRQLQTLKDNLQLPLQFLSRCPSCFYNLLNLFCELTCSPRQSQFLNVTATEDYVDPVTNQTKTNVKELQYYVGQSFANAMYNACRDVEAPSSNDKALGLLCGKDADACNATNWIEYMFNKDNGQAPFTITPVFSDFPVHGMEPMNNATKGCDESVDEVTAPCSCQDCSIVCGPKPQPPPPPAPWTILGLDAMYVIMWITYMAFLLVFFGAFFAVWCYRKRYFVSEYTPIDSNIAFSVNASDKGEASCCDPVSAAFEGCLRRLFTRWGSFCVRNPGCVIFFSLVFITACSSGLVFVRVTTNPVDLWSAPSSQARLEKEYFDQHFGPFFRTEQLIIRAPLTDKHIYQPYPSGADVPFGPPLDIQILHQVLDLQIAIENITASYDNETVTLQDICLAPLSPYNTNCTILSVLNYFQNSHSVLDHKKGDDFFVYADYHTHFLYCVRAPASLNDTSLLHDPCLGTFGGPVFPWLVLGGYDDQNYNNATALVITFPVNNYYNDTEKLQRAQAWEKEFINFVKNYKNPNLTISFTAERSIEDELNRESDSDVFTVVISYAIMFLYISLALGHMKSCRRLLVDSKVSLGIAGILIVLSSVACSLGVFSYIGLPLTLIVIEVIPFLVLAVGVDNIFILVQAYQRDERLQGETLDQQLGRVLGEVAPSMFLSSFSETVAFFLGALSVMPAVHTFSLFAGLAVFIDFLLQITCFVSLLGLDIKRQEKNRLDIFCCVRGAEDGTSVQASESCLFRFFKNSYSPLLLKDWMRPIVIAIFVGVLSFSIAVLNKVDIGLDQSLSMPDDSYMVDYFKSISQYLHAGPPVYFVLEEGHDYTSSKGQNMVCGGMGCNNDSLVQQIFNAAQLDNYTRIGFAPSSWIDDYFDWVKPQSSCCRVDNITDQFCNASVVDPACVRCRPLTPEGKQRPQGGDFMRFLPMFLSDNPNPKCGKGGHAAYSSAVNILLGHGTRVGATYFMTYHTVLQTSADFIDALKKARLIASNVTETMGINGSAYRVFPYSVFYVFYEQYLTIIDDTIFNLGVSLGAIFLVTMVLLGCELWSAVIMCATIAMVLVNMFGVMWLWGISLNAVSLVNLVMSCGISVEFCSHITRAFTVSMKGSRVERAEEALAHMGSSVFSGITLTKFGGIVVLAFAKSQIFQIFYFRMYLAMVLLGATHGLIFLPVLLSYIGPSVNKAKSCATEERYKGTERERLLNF

[6] = test system: A549 cells; format: cell-based
[7] = test system: H1N1; assay: Antiviral effect in normal/serum-free medium during H1N1 infection of A549 cells; format: cell-based, influenza virus A (H1N1); details: serum-free conditions
[8] = cited from earlier work
[9] = test system: EMCV; format: cell-based, encephalomyocarditis virus (EMCV)
[10] = test system: EMCV; assay: microbe, parasite or virus in culture; format: cell-based, encephalomyocarditis virus (EMCV); details: Cardiovirus A, A549
[11] = test system: VSV; format: cell-based, vesicular stomatitis virus (VSV); details: Sting-/- BMDM cells vs WT
[12] = test system: NPC1/STING axis; assay: Ifit1 and Ifit2 mRNA in sgRNA-EV, sgRNA Npc1 and Flag-NPC1 cells stimulated with DMXAA and Tet; format: cell-based, mouse; details: sgRNA-EV vs NPC1-deficient vs Flag-NPC1 cells, DMXAA
Method: Figure 5. The dual functions of Tet to resist viral entry and activate antiviral immunity through the NPC1/STING axis. (a, b) Confocal analysis of Bio-Tet with CD63 (a) or NPC1 (b) in A549 cells, scale bar: 10 μm. (c) Binding affinity analysis of NPC1 with itraconazole, U18666A, or Tet was determined by SPR. (d, e) CETSA (d) and DARTS (e) analysis of NPC1 with Tet in HepG2 cells. (f) Streptavidin-covered beads with biotin, Bio-Tet, Bio-Tet + Tet were incubated with cell lysates. As indicated, the levels of NPC1 protein in bound proteins (IP) and total proteins (Input) were determined using immunoblotting. (g) Viral mRNA expression in siNPC1-transfected cells treated with Tet. (h) Viral mRNA expression in sgRNA-EV, sgRNA Npc1, and sgRNA Npc1 cells transfected with Flag-NPC1 treated with Tet. (i) Ifit1 and Ifit2 mRNA expression in sgRNA-EV, sgRNA Npc1, and sgRNA Npc1 cells transfected with Flag-NPC1 stimulated with DMXAA and Tet. (j) Schematic of LysoIP-DEG. (k) Immunoblotting analysis of the indicated proteins in LysoIP-DEG in Tet-treated HepG2 cells. (l) Schematic model of NPC1/STING axis-mediated viral inhibition by Tet. The schematic diagram (j) and model (l) were created by Figdraw. For a, b, g, h, i, n = 3 independent experiments. All data are presented as mean ± SD. P values were calculated using one-way ANOVA (g, h, i). NS, not significant. […]

[13] = target: T1, NPC1; assay: Cellular thermal shift assay (CETSA); details: 150 µM, HepG2 and A549 lysates

COc1ccc2cc1Oc1ccc(cc1)C[C@H]1c3cc(c(OC)cc3CCN1C)Oc1c(OC)c(OC)cc3c1[C@H](C2)N(C)CC3 [Tet, tetrandrine]
EC50 [1]: 541 nM | EC50 [2]: 1590 nM | VSV infection [3]: effectively suppressed | antiviral effect against HSV-1 [4]: markedly reduced | NPC1 stability (DARTS) [5]: enhanced NPC1 stability against degradation | intracellular cholesterol levels [6]: higher intracellular cholesterol levels | antiviral effect on H1N1 entry [7]: diminished | systemic clearance [8]: low | volume of distribution [8]: high | EMCV attachment [9]: without affecting virus attachment | EMCV infection during entry or post-entry stages [9]: inhibited | EC50 [10]: 231 nM | antiviral effect against VSV [11]: markedly reduced | Ifit1 and Ifit2 expression [12]: observed in sgRNA-EV cells, but this effect was abolished in NPC1-deficient cells and restored in sgRNA-Npc1 cells transfected with Flag-NPC1 | NPC1 stability (CETSA) [13]: enhanced NPC1 stability against degradation

— publication PMC12416277, “Phytochemical alkaloids orchestrate immunometabolism against viral infections” (National Science Review, 2025)
